No end group written: not given here.
Tests used:
[1] = system: polyclonal antibodies in mouse sera raised against original PCSK9 sequence (aa 153-162 or aa 153-165); assay: Competition ELISA: mimotope competes with the original PCSK9 sequence for binding of polyclonal antibodies in mouse sera; conditions: 20 μg peptide incubated with sera; irrelevant peptide = 0% competition
Source text: FIGS. 2A and 2B show the ability of PCSK9 mimotopes to compete with the original PCSK9 sequence (aa 153-162 or aa 153-165) for binding polyclonal antibodies in mouse sera raised specifically against the latter.
All mimotopes are compared to the negative group (0% competition by an irrelevant peptide). As a positive control for each competition ELISA the original PCSK9 sequences were used (aa 153-162 or aa 153-165).
The graphs display the ability (in percent) of the mimotopes to compete with the original PCSK9 sequence (aa 153-162 or aa 153-165) for binding polyclonal antibodies raised against the latter.
20 μg of each indicated peptide was incubated with sera from mice injected with original PCSK9 sequence (aa 153-162 or aa 153-165: SEQ ID No. 2). Sera were then incubated on ELISA plates coated with the original PCSK9 sequence (aa 153-162 or aa 153-165: SEQ ID No. 2). Detection was performed with anti-mouse IgG antibodies, ABTS was used as a chromogenic substrate and optical density (OD) was measured at 405 nm.
Mimotopes diminishing >20% subsequent binding of the polyclonal antibodies from the sera to the original human PCSK9 epitope (aa 153-162 or 153-165: SEQ ID No. 3) coated on the ELISA plates were considered as competing mimotopes and as good candidates.

[2] = system: polyclonal antibodies specific for human PCSK9 aa 153-162 or aa 153-165; assay: Binding ELISA: mimotopes coated on plates, detected by mouse sera raised against the original PCSK9 sequence; conditions: mimotope coated at 1 μmol/mL; titer = serum dilution where 50% of ODmax is reached
Source text: FIGS. 1A and 1B show detection of PCSK9 mimotopes sequences by mouse sera containing polyclonal antibodies specific for human PCSK9 aa 153-162 or aa 153-165
The graphs display median titers from all mimotopes compared to the irrelevant negative control. As a positive control the original human PCSK9 sequence is included: aa 153-162 or aa 153-165. Mimotopes with values over 1:50.000 are considered as good candidates.
Mimotopes were coated on ELISA plates at a concentration of 1 μmol/mL. After blocking unspecific binding (1% BSA in PBS) appropriate dilutions of sera from mice injected with the original human PCSK9 sequence aa 153-162 or aa 153-165 (SEQ ID No. 3) were added and incubated for approximately 1 hour. Subsequently, detection with anti-mouse IgG antibodies was performed. ABTS was used as substrate. OD measurements were performed at 405 nm and titers were defined as the dilution of the serum where 50% of the ODmax is reached.

Balb/c mice = assay: Total cholesterol assay in immunized mice; type: in vivo, mouse
Description: The peptides were conjugated via the heterobifunctional linker GMBS (4-Maleimidobutyric acid N-hydroxysuccinimide ester) to KLH (Keyhole Limpet Hemocyanin).
5 Balb/c mice were subcutaneously immunized. Mice had access to food and water ad libitum and were kept under a 12 h light/dark cycle. The age of mice at the beginning of experiments was 8 to 10 weeks.
Mice were injected four times in 2 week intervals with 15 μg of net peptide coupled to KLH and adsorbed to Alhydrogel as adjuvant in a volume of 1 ml in total.
Blood was taken approximately 2 weeks after the final injection.
Total cholesterol was measured with the LabAssay™ Cholesterol Kit (Wako).
For this purpose mice have been immunized with HPLC purified peptides coupled to KLH and formulated with an adjuvant (Alum) as vaccines (Sequence-KLH/Alum). In the first experiment, a direct comparison between the original PCSK9 sequence and the novel sequence […] has been performed. Here, mice have been immunized with irrelevant peptide vaccine (irrelevant peptide-KLH/Alum) as a negative control group, original PCSK9 sequence vaccine ([…]-KLH/Alum) and the novel sequence vaccine ([…]-KLH/Alum). The latter group ([…]-KLH/Alum) has been used not only to compare its functionality of the induced antibodies to the functionality of the antibodies generated using the original PCSK9 sequence vaccine ([…]-KLH/Alum), but also as a bridging group between different experiments.
Subsequently, a second experiment has been performed wherein mice have been immunized with irrelevant peptide as a negative control group and all the three novel sequences […], […] and […], all coupled to KLH and formulated as vaccines. As it has been already mentioned above, the mice immunized with the novel sequence ([…]-KLH/Alum) have been used as a bridging group between the experiments. In fact, the bridging group injected with the novel sequence ([…]-KLH/Alum) is behaving in a similar way in both experiments (FIGS. 5A, 5B, 6A and 6B) and most importantly, all three groups immunized with vaccines containing one of the sequences […], […] or […] behave in a very similar way in terms of reduction of plasma total cholesterol levels (FIGS. 6A and 6B).

| Substance | % Competition compared to the related control group [1] [%] | Median Titer Binding ELISA (ODmax/2) [2] | further results |
| --- | --- | --- | --- |
| 50 (SIPWNLERITPPK; Artificial Sequence, Mimotope) [compound 50] | 66 | 158,000 |  |
| 51 (SIPWNLERITPPS; Artificial Sequence, Mimotope) [compound 51] | 66 | 149,000 |  |
| 52 (SIPWNLERITPPL; Artificial Sequence, Mimotope) [compound 52] | 66 | 139,000 |  |
| 53 (VIPWNLERLT; Artificial Sequence, Mimotope) [compound 53] | 54 | 191,000 |  |
| 54 (VIPWNLERTT; Artificial Sequence, Mimotope) [compound 54] | 69 | 162,000 |  |
| 55 (VIPWNLERIL; Artificial Sequence, Mimotope) [compound 55] | 49 | 173,000 |  |
| 56 (VIPWNLERIQ; Artificial Sequence, Mimotope) [compound 56] | 47 | 166,000 |  |
| 57 (SVPWNLERLT; Artificial Sequence, Mimotope) [compound 57] | 57 | 154,000 |  |
| 58 (SVPWNLERTT; Artificial Sequence, Mimotope) [compound 58] | 73 | 116,000 |  |
| 59 (SVPWNLERIL; Artificial Sequence, Mimotope) [compound 59] | 59 | 188,000 |  |
| 60 (SVPWNLERIQ; Artificial Sequence, Mimotope) [compound 60] | 61 | 222,000 |  |
| 61 (SQPWNLERLT; Artificial Sequence, Mimotope) [compound 61] | 69 | 200,000 |  |
| 62 (SQPWNLERIL; Artificial Sequence, Mimotope) [compound 62] | 69 | 196,000 |  |
| 63 (SQPWNLERIQ; Artificial Sequence, Mimotope) [compound 63] | 66 | 167,000 |  |
| 64 (SIPWSLERLT; Artificial Sequence, Mimotope) [compound 64] | 46 | 164,000 |  |
| 65 (SIPWSLERTT; Artificial Sequence, Mimotope) [compound 65] | 64 | 147,000 |  |
| 66 (SIPWSLERIL; Artificial Sequence, Mimotope) [compound 66] | 46 | 199,000 |  |
| 67 (SIPWSLERIQ; Artificial Sequence, Mimotope) [compound 67] | 44 | 223,000 |  |
| 68 (VQPWSLERTL; Artificial Sequence, Mimotope) [compound 68] | 48 | 95,000 |  |
| 69 (SQPWSLERTL; Artificial Sequence, Mimotope) [compound 69] | 53 | 98,000 |  |
| 70 (SVPWNLEKLT; Artificial Sequence, Mimotope) [compound 70] | 11 | 47,000 |  |
| 71 (VQPWNLERLQ; Artificial Sequence, Mimotope) [compound 71] | 72 | 184,000 |  |
| 72 (VQPWSLERLL; Artificial Sequence, Mimotope) [compound 72] | 66 | 166,000 |  |
| 73 (SVPWSLERLT; Artificial Sequence, Mimotope) [compound 73] | 74 | 251,000 |  |
| SIPWSLERIT-KLH/Alum: novel sequence vaccine: peptide SIPWSLERIT (SEQ ID No. 21) coupled to KLH and formulated with adjuvant Alum (also: coupled to KLH, site not given here) |  |  | levels of total cholesterol in comparison to the negative control group (Balb/c mice; FIGS. 5A and 5B, result in words): strongly reduce; % decrease of TC compared to the irrelevant (negative) control group (Balb/c mice; first experiment, FIG. 5B, mice immunized with Sequence-KLH/Alum): 35-40%; total cholesterol compared to the group injected with vaccine containing the original PCSK9 sequence SIPWNLERIT (Balb/c mice; result in words): significant reduction; total cholesterol compared to the group injected with vaccine containing the original PCSK9 sequence SIPWNLERIT (Balb/c mice; result in words, listed as SIPWSLERIT): significantly reduce |
| SVPWNLERIQ: vaccine containing novel sequence SVPWNLERIQ (SEQ ID No. 60), coupled to KLH and formulated as vaccine (also: coupled to KLH) |  |  | total cholesterol compared to the group injected with vaccine containing the original PCSK9 sequence SIPWNLERIT (Balb/c mice; result in words): significantly reduce |
| VIPWNLERIL: vaccine containing novel sequence VIPWNLERIL (SEQ ID No. 55), coupled to KLH and formulated as vaccine (also: coupled to KLH) |  |  | total cholesterol compared to the group injected with vaccine containing the original PCSK9 sequence SIPWNLERIT (Balb/c mice; result in words): significantly reduce |
